Results on three compounds are retold here after patent US6291671A, “Process for producing drug complexes” (Daiichi Pharmaceutical Co., Ltd., priority 1996, dated 2001).

The conditions of data set [1]: cited from earlier work.
Data set [2] deals with Meth A tumor-bearing mice. Kind of data set: Antitumor activity, Meth A tumor-bearing mice, single administration on day 7. The class given is in vivo, mouse. As to the method: (§1) Meth A tumor-bearing mice were prepared (7 mice per group) by subcutaneously transplanting 1×10^6 mouse fibrosarcoma Meth A cells into the right inguinal regions of BALB/c male mice (7-week old). On day 7, the drug complex of Example 9 dissolved in distilled water for injection was injected in the tail vein of the Meth A tumor-bearing mice every 4 days 4 times. On day 21 after the transplantation, tumor masses were excised and weighed to calculate the inhibition rate of tumor growth according to the following equation: inhibition rate of tumor growth (%)=[1-(average tumor weight of the group administered with the test sample/average tumor weight of control group)]×100.
Meth A tumor-bearing mice (6 mice per group) were prepared according to a similar manner to that of Example 11 and the antitumor activity was compared to that obtained by single administration of the drug complexes of Examples 8 and 9 once on day 7.
Meth A tumor-bearing mice (6 mice per group) were prepared according to a similar manner to that of Example 11 and the antitumor activity of the drug complex of Example 15 was examined by single administration in a similar manner to that of Example 12.
Meth A tumor-bearing mice (6 mice per group) were prepared according to a similar manner to that of Example 1, and the antitumor activity of the drug complex of Example 41 was examined in the cases of single administration in a similar manner to that of Example 12, and its antitumor activity was compared to that of the drug compound, per se.
Meth A tumor-bearing mice (6 mice per group) were prepared according to a similar manner to that of Example 11, and the antitumor activity was examined according to a similar method to that in Example 12 by single administration of the drug complexes of Examples 29, 43, and 44, respectively.

Data set [3] relates to Meth A tumor-bearing mice. Put plainly: Antitumor activity, Meth A tumor-bearing mice, i.v. every 4 days 4 times. The class given is in vivo, mouse. The settings on record: for Inhibition rate: calculated based on the drug compound, day 21. Here is the method:
as §1

Data set [4] relates to SC-6 human gastric tumor. Kind of data set: Antitumor activity, SC-6 tumor-bearing nude mice, single i.v. administration. The class given is in vivo, human tumor in nude mice. The settings on record: for Inhibition rate / Numbers of died mice/mice used: calculated based on the drug compound. Here is the method: (§2) SC-6 tumor-bearing nude mice (5 mice per group) were prepared by subcutaneously transplanting a piece of SC-6 human gastric tumor block into the right inguinal regions of nude mice (13AI,B/c-nu/nu, male). On day 27 after the transplantation, the drug complex of Example 15 dissolved in distilled water for injection was given as a single intravenous administration and its antitumor activity was compared to that of the drug compound, per se.

In data set [5] the test system is Meth A tumor-bearing mice. Put plainly: Pharmacokinetics of the drug complex in Meth A tumor-bearing mice. The class given is in vivo, mouse. The settings on record: 10 mg/kg single, calculated as the drug compound. Here is the method: Meth A tumor-bearing mice were prepared according to a similar manner to that of Example 11, the drug complex of Example 15 was given as single administration in a similar manner to that of Example 12 (10 mg/kg: calculated as the drug compound), and the change of the drug complex concentration in various tissues was determined.

The test system of data set [6] is Human lung cancer QG-90. Kind of data set: Antitumor activity, human lung cancer QG-90-bearing nude mice, single i.v. administration. In kind it is in vivo, human tumor in nude mice. The settings on record: for Inhibition rate / Numbers of died mice/mice used: calculated based on the drug compound. Here is the method: as §2
Human lung cancer QG-90-bearing nude mice (5 mice per group) were prepared according to a similar manner to that of Example 53. On day 16 after the transplantaion, the drug complex of Example 15 dissolved in distilled water for injection was given as a single intravenous administration and its antitumor activity was compared to that of the drug compound, per se.

Setting [7] is: Example 11, every 4 days 4 times.
Where [8] appears, read: single administration, compared to the drug compound, per se.
Where [9] appears, read: single i.v., compared to the drug compound, per se.

Read-outs that look alike come from different tables or passages of the source. * marks the point of attachment. Exatecan = CC[C@@]1(O)C(=O)OCc2c1cc1n(c2=O)Cc2c-1nc1cc(F)c(C)c3c1c2[C@@H](N*)CC3

For `CC[C@@]1(O)C(=O)OCc2c1cc1n(c2=O)Cc2c-1nc1cc(F)c(C)c3c1c2[C@@H](N)CC3` [DX-8951, (1S,9S)-1-amino-9-ethyl-5-fluoro-2,3-dihydro-9-hydroxy-4-methyl-1H,12H-benzo[de]pyrano[3',4':6,7]indolizino[1,2-b]quinoline-10,13(9H,15H)-dione, reference compound], the lactone ring equilibrium result is “compound whose lactone ring is closed” in data set [1] (acidic aqueous medium, approximately at pH 3) and “compound whose lactone ring is opened” in data set [1] (basic aqueous medium, approximately at pH 10). Further, the Inhibition rate in data set [2] (Example 12 (Table 3), 20 mg/kg single) is recorded as 59%; in data set [2] (Example 12 (Table 3), 60 mg/kg single), 77%.

As to “Carboxymethyldextran Polyalcohol-Gly-Gly-Phe-Gly-NH--A' (A--NH2 =DX-8951) [Example 9] ({carboxymethyldextran polyalcohol}-GGFG-Exatecan; also: N-terminus linked to carboxymethyldextran polyalcohol, C-terminus amide-linked to drug residue A' (DX-8951))”, the Inhibition rate in data set [3] (0.35 × 4 mg/kg) was 41%; in data set [3] (0.7 × 4 mg/kg), 59%; in data set [3] (1.4 × 4 mg/kg), 94%; in data set [2] (Example 12 (Table 3), 2.5 mg/kg single, calculated based on the drug compound), 87%; in data set [2] (Example 12 (Table 3), 5 mg/kg single, calculated based on the drug compound), 98%. Further, the “antitumor activity (in words)” value in data set [3] (setting [7]) is “remarkably enhanced antitumor activity compared to the drug compound, per se”; in data set [2] (setting [8]), “(Polysaccharide derivative)-Gly-Gly-Phe-Gly-NH--A'> (Polysaccharide derivative)-Gly-Gly-Gly-Phe-NH--A'> the drug compound, per se”. The “toxicity (weight loss)” value in data set [3] (setting [7]) is listed as “no toxicity (weight loss)”.

For “Carboxymethyldextran Polyalcohol-Gly-Gly-Phe-Gly-NH--A' (A--NH2 =DX-8951) [Example 15] ({carboxymethyldextran polyalcohol}-GGFG-Exatecan; also: N-terminus linked to carboxymethyldextran polyalcohol, C-terminus amide-linked to drug residue A' (DX-8951))”, the Inhibition rate is recorded as 71% in data set [4] (2 mg/kg single i.v.); 100% in data set [4] (8 mg/kg single i.v.); 83% in data set [2] (Example 52 (table 4), 1.25 mg/kg single, calculated based on the drug compound); 95% in data set [2] (Example 52 (table 4), 2.5 mg/kg single, calculated based on the drug compound); 99% in data set [2] (Example 52 (table 4), 5 mg/kg single, calculated based on the drug compound); 100% in data set [2] (Example 52 (table 4), 10 mg/kg single, calculated based on the drug compound). Also, the Inhibition rate in data set [6] (1.75 mg/kg single i.v.) is on record as 97%; in data set [6] (7 mg/kg single i.v.) it was 98%. Moreover, the “Numbers of died mice/mice used” value in data set [4] (2 mg/kg single i.v.), in data set [4] (8 mg/kg single i.v.), in data set [6] (1.75 mg/kg single i.v.) and in data set [6] (7 mg/kg single i.v.) was 0/5 each time. In addition, the “death due to toxicity (in words)” value in data set [4] (single i.v.) is “no death due to toxicity”. The “antitumor activity (in words)” value is “higher antitumor activity compared to the drug compound, per se” in data set [4] (setting [9]); “remarkably enhanced antitumor activity” in data set [2] (setting [8]); “remarkably enhanced antitumor activity” in data set [6] (setting [9]). For the same compound, the “distribution in tumor tissues” value in data set [5] was “high distribution in tumor tissues”. In addition, in data set [5], the “retention of blood level” value is on record as “extremely long retention of blood level”. The “tumor selectivity against liver and small intestine” value in data set [5] is “high tumor selectivity against liver and small intestine”. In addition, the “effective dose-range (in words)” value in data set [2] (setting [8]) and in data set [6] (setting [9]) was “broader effective dose-range” throughout.
